Laboratory results from patent US10815235B2, “Polycyclic compounds and uses thereof” (priority 2017, dated 2020).
Like-named read-outs stand apart in the source and are kept apart here.

How the values were obtained:
[1] = target: Serotonin 5-HT1B receptor (Homo sapiens, UniProt P28222); assay: GTPγS Scintillation Proximity Assay, agonist and antagonist mode; type: biochemical
Experimental: (§1) Antagonist and agonist activities were determined using a GTPγS Scintillation Proximity Assay. The assay was prepared as follows: Membrane extracts were prepared from recombinant human Dopamine D2L, D3; Serotonin 5-HT1A, 5-HT1B, 5-HT1D and 5-HT1F receptors.
(§2) Samples were tested by proprietary biological assays by Ogeda S. A., Euroscreen FAST Business Unit, Rue Adrienne Bolland, 47 B-6041 Gosselies, Belgium. Each protein assay was prepared using the following conditions.
5-HT1B • Assay buffer: 20 mM HEPES pH 7.4; 100 mM NaCl, 10 μg/ml saponin, 3 mM MgCl2; • Membranes: recombinant 5-HT1B membrane extracts thawed on ice and diluted in assay buffer to give 1 mg/ml (10 μg/well) and kept on ice; • GDP: diluted in assay buffer to give a 3 μM final assay concentration; • Beads: PVT-WGA (Perkin Elmer, RPNQ001), diluted in assay buffer at 50 mg/ml (0.5 mg/well); and • GTPγ^35S: (PerkinElmer NEG030X), diluted in assay buffer to give 0.1 nM.
(§3) Membranes were mixed with GDP (volume:volume 1:1) and incubated for at least 15 min on ice. In parallel, GTPγ[^35S] is mixed with the beads (volume:volume 1:1) just before starting the reaction.
(§4) To determine agonist activity, the following reagents were added in the wells of an Optiplate (Perkin Elmer): 50 μL of test or reference ligand, 10 μL of assay buffer, 20 μl of the membranes:GDP mix, and 20 μL of the GTPγ[^35S]:beads mix. EC50 values were used to determine whether a compound acted as an agonist.
(§5) To determine antagonist activity, the following reagents were added in the wells of an Optiplate (Perkin Elmer): 50 μL of test or reference ligand, 20 μL of the membranes:GDP mix, then the plate is incubated 15 minutes at room temperature. After incubation, 10 μL of reference agonist at historical EC80 (final concentration) was added, followed by 20 μL of the GTPγ[^35S]:beads mix.
(§6) The plates were covered with a top seal, mixed on an orbital shaker for 2 min, and then incubated for 1 hour at room temperature. Then the plates were centrifuged for 10 min at 2000 rpm, incubated at room temperature 1 hour and counted for 1 min/well with a PerkinElmer TopCount reader. IC50 values were used to determine whether a compound acted as an antagonist.

[2] = target: Serotonin 5-HT1D receptor (Homo sapiens, UniProt P28221); assay: as above; type: biochemical
Chain of Serotonin 5-HT1D receptor (P28221 whole entry): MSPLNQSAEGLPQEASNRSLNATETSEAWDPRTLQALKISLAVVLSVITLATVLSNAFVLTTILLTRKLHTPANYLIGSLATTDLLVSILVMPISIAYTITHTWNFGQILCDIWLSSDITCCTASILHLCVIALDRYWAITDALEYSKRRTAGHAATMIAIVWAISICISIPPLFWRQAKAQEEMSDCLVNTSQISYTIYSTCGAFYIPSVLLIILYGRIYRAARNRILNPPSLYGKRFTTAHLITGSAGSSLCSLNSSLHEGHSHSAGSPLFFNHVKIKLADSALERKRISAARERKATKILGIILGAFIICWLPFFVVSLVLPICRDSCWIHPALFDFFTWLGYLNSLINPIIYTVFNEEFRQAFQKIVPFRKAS
Experimental: as §1, §2
5-HT1D • Assay buffer: 20 mM HEPES pH 7.4; 200 mM NaCl, 10 μg/ml saponin, 3 mM MgCl2; • Membranes: recombinant 5-HT1D membrane extracts thawed on ice and diluted in assay buffer to give […] and kept on ice; • GDP: diluted in assay buffer to give a 30 μM working solution (3 μM final concentration); • Beads: PVT-WGA (Perkin Elmer, RPNQ001), diluted in assay buffer at 50 mg/ml (0.5 mg/10 μl); and • GTPγ^35S: (PerkinElmer NEG030X), diluted in assay buffer to give 0.1 nM.
as §3, §4, §5, §6

Adrenergic α1A receptor = target: T1, Adrenergic α1A receptor (Homo sapiens, UniProt P35348); assay: IPOne HTRF assay, agonist and antagonist mode; type: cell-based
T1 construct: expressed in transfected cells; host or cells: CHO-K1
T1 sequence (P35348 1-466): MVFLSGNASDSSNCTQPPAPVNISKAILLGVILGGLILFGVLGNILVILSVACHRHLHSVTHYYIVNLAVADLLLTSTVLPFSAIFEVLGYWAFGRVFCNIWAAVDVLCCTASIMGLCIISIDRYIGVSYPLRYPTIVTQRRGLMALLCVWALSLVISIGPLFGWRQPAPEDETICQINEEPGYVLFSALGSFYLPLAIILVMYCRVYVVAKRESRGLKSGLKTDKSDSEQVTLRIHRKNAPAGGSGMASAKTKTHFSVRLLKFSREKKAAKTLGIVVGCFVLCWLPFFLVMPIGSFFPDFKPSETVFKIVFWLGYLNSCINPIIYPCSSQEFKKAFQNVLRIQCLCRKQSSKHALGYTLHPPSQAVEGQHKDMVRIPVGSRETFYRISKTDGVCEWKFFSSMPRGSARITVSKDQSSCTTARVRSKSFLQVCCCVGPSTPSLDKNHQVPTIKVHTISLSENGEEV
Experimental: (§7) Antagonist and agonist activities were determined using an IPOne […] HTRF assay. The assay was prepared as follows: CHO-K1 cells expressing human recombinant Adrenergic α1A, Serotonin 5-HT2A, and 5-HT2B receptors grown to mid-log phase in culture media without antibiotics were detached with PBS-EDTA, centrifuged and resuspended in medium without antibiotics buffer. 20,000 cells were distributed in a 96 well plate and incubated overnight at 37° C. with 5% CO2.
(§8) To analyze agonist activity, the medium was removed and 20 μl of assay buffer plus 20 μl of test compound or reference agonist were added in each well. The plate was incubated for 60 min. at 37° C. with 5% CO2. EC50 values were used to determine whether a compound acted as an agonist.
(§9) To analyze antagonist activity, 20 μl of test compound or reference antagonist was added and the plate is incubated for 15 min. at 37° C. in a humidified atmosphere of 95% air with 5% CO2, then 20 μl of reference agonist at a final concentration corresponding to the historical EC80 is added. The plate is incubated for 60 min. at 37° C. with 5% CO2. IP1-D2 reagent and anti-IP1 cryptate reagents are then dispensed in the wells and IP1 concentrations are then measured following the manufacturer recommendations. IC50 values were used to determine whether a compound acted as an antagonist.

[3] = target: T2, Serotonin 5-HT2A receptor (Homo sapiens, UniProt P28223); assay: IPOne HTRF assay, agonist and antagonist mode; type: cell-based
T2 construct: expressed in transfected cells; host or cells: CHO-K1
T2 sequence (P28223 whole entry): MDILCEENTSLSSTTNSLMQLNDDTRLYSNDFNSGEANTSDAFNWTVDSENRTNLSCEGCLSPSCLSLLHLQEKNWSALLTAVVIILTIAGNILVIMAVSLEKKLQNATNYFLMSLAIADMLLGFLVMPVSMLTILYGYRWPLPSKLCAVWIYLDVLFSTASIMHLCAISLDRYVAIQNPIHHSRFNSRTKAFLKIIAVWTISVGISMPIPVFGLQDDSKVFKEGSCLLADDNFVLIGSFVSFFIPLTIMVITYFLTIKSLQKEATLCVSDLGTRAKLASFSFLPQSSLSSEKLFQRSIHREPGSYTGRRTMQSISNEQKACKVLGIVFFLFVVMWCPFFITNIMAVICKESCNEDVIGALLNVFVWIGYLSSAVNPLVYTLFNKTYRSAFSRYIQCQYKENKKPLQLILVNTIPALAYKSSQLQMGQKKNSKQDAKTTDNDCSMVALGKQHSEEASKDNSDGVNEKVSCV
Experimental: as §7, §8, §9

[4] = target: T3, Serotonin 5-HT2B receptor (Homo sapiens, UniProt P41595); assay: IPOne HTRF assay, agonist and antagonist mode; type: cell-based
T3 construct: expressed in transfected cells; host or cells: CHO-K1
T3 sequence (P41595 whole entry): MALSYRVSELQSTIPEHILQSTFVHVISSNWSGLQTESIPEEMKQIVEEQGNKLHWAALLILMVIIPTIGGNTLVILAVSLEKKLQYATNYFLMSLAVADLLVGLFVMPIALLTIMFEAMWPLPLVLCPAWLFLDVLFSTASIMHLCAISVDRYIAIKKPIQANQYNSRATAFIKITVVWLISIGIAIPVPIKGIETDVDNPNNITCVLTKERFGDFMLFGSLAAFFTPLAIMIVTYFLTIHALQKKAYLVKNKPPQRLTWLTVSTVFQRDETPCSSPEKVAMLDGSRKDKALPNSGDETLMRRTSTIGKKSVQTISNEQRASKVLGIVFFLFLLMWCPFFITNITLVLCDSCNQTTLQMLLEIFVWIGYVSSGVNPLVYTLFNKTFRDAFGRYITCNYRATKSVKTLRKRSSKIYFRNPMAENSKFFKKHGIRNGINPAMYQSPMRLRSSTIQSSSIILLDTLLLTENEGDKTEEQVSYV
Experimental: as §7, §8, §9

[5] = Antagonist Activity (IC50), 5-HT1B, membrane extracts, vs reference agonist at EC80
[6] = IC50 value for the Serotonin 5-HT1B receptor, antagonist mode, bound stated
[7] = Antagonist Activity (IC50), 5-HT1D, membrane extracts, vs reference agonist at EC80
[8] = IC50 value for the Serotonin 5-HT1D receptor, antagonist mode, bound stated
[9] = Antagonist Activity (IC50), α1A, CHO-K1 cells, vs reference agonist at EC80
[10] = IC50 value for the Adrenergic α1A receptor, antagonist mode, bound stated
[11] = CHO-K1 cells, vs reference agonist at EC80, read-out: Antagonist Activity (IC50), 5-HT2A
[12] = CHO-K1 cells, read-out: Agonist Activity (EC50), 5-HT2A
[13] = agonist mode, bound stated, read-out: EC50 value for the Serotonin 5-HT2A receptor
[14] = antagonist mode, bound stated, read-out: IC50 value for the Serotonin 5-HT2A receptor
[15] = CHO-K1 cells, vs reference agonist at EC80, read-out: Antagonist Activity (IC50), 5-HT2B
[16] = antagonist mode, bound stated, read-out: IC50 value for the Serotonin 5-HT2B receptor

Chain of Serotonin 5-HT1B receptor (P28222 whole entry): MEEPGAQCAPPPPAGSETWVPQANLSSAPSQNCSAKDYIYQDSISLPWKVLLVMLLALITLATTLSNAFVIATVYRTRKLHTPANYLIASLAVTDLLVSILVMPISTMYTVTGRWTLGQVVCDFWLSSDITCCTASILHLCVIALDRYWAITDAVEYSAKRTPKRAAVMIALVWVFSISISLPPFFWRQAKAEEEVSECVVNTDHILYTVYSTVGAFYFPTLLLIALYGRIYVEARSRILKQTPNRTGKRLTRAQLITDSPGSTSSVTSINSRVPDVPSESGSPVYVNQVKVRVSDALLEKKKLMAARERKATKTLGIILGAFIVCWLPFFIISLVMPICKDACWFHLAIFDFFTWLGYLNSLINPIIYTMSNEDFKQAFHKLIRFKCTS

| SMILES | IC50 [1, 5] [nM] | IC50 [1, 6] [nM] | IC50 [2, 7] [nM] | IC50 [2, 8] [nM] | IC50 (Adrenergic α1A receptor; [9]) [nM] | IC50 (Adrenergic α1A receptor; [10]) [nM] | IC50 [3, 11] [nM] | EC50 [3, 12] [nM] | EC50 [3, 13] [nM] | IC50 [3, 14] [nM] | IC50 [4, 15] [nM] | IC50 [4, 16] [nM] | also measured |
| --- | --- | --- | --- | --- | --- | --- | --- | --- | --- | --- | --- | --- | --- |
| CCN(CC)C(=O)N[C@H]1C[C@@H]2c3cccc4[nH]c(Br)c(c34)C[C@H]2N(C)C1 [Compound A8H, 3-((6aR,9S, 10aR)-5-bromo-7-methyl-4,6,6a,7,8,9,10,10a-octahydroindolo[4,3-fg]quinolin-9-yl)-1,1-diethylurea] | 410 | < 1000 | 8 | < 1000 | 14 | < 1000 | 14 | 6.9 | < 1000 | < 1000 | 52 |  | EC50 ([4]; agonist mode, bound stated): < 1000 nM |
| CCN(CC)C(=O)N[C@H]1C[C@@H]2c3cccc4[nH]c(C(F)(F)F)c(c34)C[C@H]2N(C)C1 [Compound A9H, 1,1-diethyl-3-((6aR,9S,10aR)-7-methyl-5-(trifluoromethyl)-4,6,6a,7,8,9,10,10a-octahydroindolo[4,3-fg]quinolin-9-yl)urea] | 110 | < 1000 | 10 | < 1000 | 9.1 | < 1000 | 110 | 12 | < 1000 | < 1000 | 23 | < 1000 |  |
| CCN(CC(F)(F)F)C(=O)N[C@H]1C[C@@H]2c3cccc4[nH]c(C(F)(F)F)c(c34)C[C@H]2N(C)C1 [Compound A16H, 1-ethyl-3-((6aR,9S,10aR)-7-methyl-5-(trifluoromethyl)-4,6,6a,7,8,9,10,10a-octahydroindolo[4,3-fg]quinolin-9-yl)-1-(2,2,2-trifluoroethyl)urea] |  | < 1000 |  | < 1000 |  | < 1000 |  |  |  |  |  |  | IC50 ([1]; membrane extracts, vs reference agonist at EC80, read-out: Antagonist Activity (IC50), 5-HT1B): 340 nM; IC50 ([2]; membrane extracts, vs reference agonist at EC80, read-out: Antagonist Activity (IC50), 5-HT1D): 14 nM; IC50 (Adrenergic α1A receptor; CHO-K1 cells, vs reference agonist at EC80, read-out: Antagonist Activity (IC50), α1A): 15 nM; IC50 ([3]; Antagonist Activity (IC50), 5-HT2A, CHO-K1 cells, vs reference agonist at EC80): 16 nM; IC50 ([3]; IC50 value for the Serotonin 5-HT2A receptor, antagonist mode, bound stated): < 1000 nM; IC50 ([4]; Antagonist Activity (IC50), 5-HT2B, CHO-K1 cells, vs reference agonist at EC80): 16 nM; IC50 ([4]; IC50 value for the Serotonin 5-HT2B receptor, antagonist mode, bound stated): < 1000 nM |
| CCN(CC(F)(F)F)C(=O)N[C@H]1C[C@@H]2c3cccc4[nH]c(C5CC5)c(c34)C[C@H]2N(C)C1 [Compound A17H, 3-((6aR,9S,10aR)-5-cyclopropyl-7-methyl-4,6,6a,7,8,9,10,10a-octahydroindolo[4,3-fg]quinolin-9-yl)-1-ethyl-1-(2,2,2-trifluoroethyl)urea] |  |  | 50 | < 1000 | 13 | < 1000 | 11 |  |  | < 1000 | 25 | < 1000 |  |
| CC[C@@H](CO)NC(=O)[C@@H]1C[C@@H]2c3cccc4c3c(c(C3CC3)n4C)C[C@H]2N(C)C1 [Compound D13H, (6aR,9R,10aR)-5-cyclopropyl-N—((S)-1-hydroxybutan-2-yl)-4,7-dimethyl-4,6,6a,7,8,9,10,10a-octahydroindolo[4,3-fg]quinoline-9-carboxamide] |  |  |  |  |  |  | 74 |  |  | < 1000 | 3.4 | < 1000 | EC50 ([1]; Agonist Activity (EC50), 5-HT1B, membrane extracts): 430 nM; EC50 ([1]; EC50 value for the Serotonin 5-HT1B receptor, agonist mode, bound stated): < 1000 nM; EC50 ([2]; Agonist Activity (EC50), 5-HT1D, membrane extracts): 11 nM; EC50 ([2]; EC50 value for the Serotonin 5-HT1D receptor, agonist mode, bound stated): < 1000 nM |
